Series [1] deals with T1, porcine pancreatic lipase (Sus scrofa, UniProt P00591).
T1 sequence (P00591 1-450): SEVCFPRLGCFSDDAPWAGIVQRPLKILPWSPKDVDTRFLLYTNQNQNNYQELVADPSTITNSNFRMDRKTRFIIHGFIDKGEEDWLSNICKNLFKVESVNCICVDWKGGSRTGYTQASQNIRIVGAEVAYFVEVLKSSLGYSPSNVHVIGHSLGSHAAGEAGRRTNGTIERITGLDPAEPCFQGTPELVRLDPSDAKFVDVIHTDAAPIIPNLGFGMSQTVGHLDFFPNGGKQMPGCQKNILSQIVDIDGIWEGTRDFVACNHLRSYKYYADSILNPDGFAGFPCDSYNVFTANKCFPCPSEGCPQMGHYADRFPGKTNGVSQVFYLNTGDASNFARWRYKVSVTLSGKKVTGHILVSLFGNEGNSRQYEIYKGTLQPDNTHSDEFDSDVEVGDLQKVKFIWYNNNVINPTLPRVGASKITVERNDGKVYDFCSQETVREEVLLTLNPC
The series is described as follows: in vitro pancreatic lipase activity test (lipolytic release of p-nitrophenol from p-nitrophenyl palmitate, extinction at 405 nm). Format: biochemical. The conditions noted are these: read-out: residual lipase activity, relative to the original initial lipolytic activity; for remaining activity at 0.182 µM: test substance concentration 0.182 μM; for remaining activity at 0.091 µM: test substance concentration 0.091 μM. On the procedure:
In this test the inhibition of the lipolytic action of porcine pancreatic lipase with respect to the test substrate p-nitrophenyl palmitate under the influence of the test substances of Formula I was determined. Therein, the change in the relative extinction of the investigated solutions caused by the lipolytic release of p-nitrophenol from p-nitrophenyl palmitate was measured. The residual activity of the lipase remaining after the addition of the test substances is given in percent, relative to the original initial lipolytic activity. The example numbers quoted relate to the preparation examples given below.
The reagents given below are prepared: • 1. Substrate Solution • For the preparation of a “solution A”, 45 mg p-nitrophenyl palmitate was dissolved in 15 ml isopropanol by sonication with ultrasound. For the preparation of a “solution B” 310 mg Na-deoxycholate dry substance and 150 mg gum arabic were dissolved in 135 ml 0.05 M sodium phosphate buffer (pH=8.0). 5 minutes before the test was performed, 9 ml “solution B” was mixed with 1 ml “solution A” to form a “solution C” and brought to a temperature of 38° C. • 2. Pancreatic Lipase Solution • 100 mg FIP-lipase standard LS7 (porcine pancreatic lipase, 36,700 FIP units/g) were dissolved in 50 ml ice-cold 1%-strength aqueous sodium chloride solution and filtered through a 0.2 μm-syringe filter. After determination of the lipase activity in accordance with FIP, the solution was set to an activity of 40 FIP units/ml with 1%-strength aqueous sodium chloride solution. Dilute pancreatic lipase solutions which had activities of in each case 10, 20 and 30 FIP units/ml were also prepared from the pancreatic lipase solution for a calibration series by diluting with 1%-strength aqueous sodium chloride solution. • 3. Inhibitor Solutions • The lipase-inhibitory compounds of Formula I were dissolved in various concentrations in dimethyl sulfoxide (DMSO), so that between 2.0 and 800 nmol of the inhibitor were present in 100 μl inhibitor solution. Pure DMSO was used to determine the blank reading. Performance of the Test
100 μl of the inhibitor solution of a given concentration prepared as described above was temperature-controlled for 5 minutes in the cell changer of a photometer (Biochrom 4060). Then 1 ml of the above “solution C” was added with stirring. Then the reaction was started by addition of 100 μl pancreatic lipase solution with stirring. 2 minutes after the start of the reaction, the extinction of each sample was detected for 4 minutes at 405 nm.
In each case, in addition to the sample measurement, a calibration series was also measured to determine the lipase activity. […] The calibration series served to determine the lipase activity. To determine the calibration series, the lipase units used were plotted against the extinction values (dE/min) determined in each case. Using these calibration lines and the extinction values determined for the respective incubation batches, the lipase activity can be determined for each sample. […] To determine the blank reading, 100 μl DMSO were mixed with 1 ml “solution C” and the reaction was started by addition of 100 μl of a lipase solution.
The measured value of the photometer per batch (dE/min.) is yielded by the difference in the extinction values after the second and sixth minute (dE) divided by the measuring time (dt=4 min.). The blank reading is determined analogously and then subtracted from the measured value. The residual activity can be read off via the calibration line by means of the dE value calculated in this manner.
In the pancreatic lipase activity test set forth above, the test substances given below each in a concentration (c) of 0.727 μM (unless otherwise stated) caused an inhibition of the lipase activity to the fraction of the original initial activity given below. The compounds of Examples 17, 28, 29, 32, 39, 40, 47, 48, 56, 58 and 59 were measured in a concentration of 0.364 μM each time. […]

[2] abbreviates: test substance concentration (c) 0.727 μM, substrate p-nitrophenyl palmitate.
[3] abbreviates: substrate p-nitrophenyl palmitate.
[4] abbreviates: range of examples with mixed concentrations: 0.727 μM unless otherwise stated, Ex. 17, 28, 29, 32, 39, 40, 47, 48, 56, 58, 59 at 0.364 μM, 21, 35, 37, 38, 49, 50, 51, 54, 55, 64 at 0.182 μM, 46, 61, 62, 65 at 0.091 μM.

Where two headings read alike, the source gives them in different places.

On to `O=C(CCCC(=O)C(F)(F)F)c1ccc(Br)cc1` [Example 57, 1-(4-bromophenyl)-6,6,6-trifluorohexane-1,5-dione], for which the remaining activity at 0.727 µM in series [1] (setting [2]) was at most 35%.
Turning to `O=C(CCCC(=O)C(F)(F)F)c1cccc(OCc2ccccc2)c1` [Example 34, 6,6,6-trifluoro-1-(3-benzyloxyphenyl)hexane-1,5-dione], in series [1] (setting [2]), the remaining activity at 0.727 µM was at most 20%.
Turning to `COc1ccc(CCCC(=O)C(F)(F)F)cc1` [Example 11, 5-(4-methoxyphenyl)-1,1,1-trifluoropentan-2-one], the remaining activity at 0.727 µM in series [1] (setting [2]) was at most 60%.
With `O=C(CCCC(=O)C(F)(F)F)c1ccc(-c2cccc3ccccc23)cc1` [Example 37, 6,6,6-trifluoro-1-[4-(1-naphthyl)phenyl]hexane-1,5-dione], the remaining activity at 0.182 µM in series [1] (setting [3]) was at most 20%.
As for `COc1ccc(C(=O)CCCC(=O)C(F)(F)F)cc1CCCCc1ccccc1` [Example 35, 6,6,6-trifluoro-1-[4-methoxy-3-(4-phenylbutyl)phenyl]hexane-1,5-dione], the remaining activity at 0.182 µM in series [1] (setting [3]) was at most 35%.
On to `O=C(CCCCCCCCCCOc1ccccc1)C(F)(F)F` [Example 5, 1,1,1-trifluoro-12-phenoxy-dodecan-2-one], for which the melting point (in general, the temperature, or range, at which the solid turns liquid) is 47 to 49 °C. Moreover, the remaining activity at 0.727 µM in series [1] (setting [2]) was at most 60%.
Take `O=C(CCCC(=O)C(F)(F)F)c1ccc(OCCCCOc2ccccc2)cc1` [Example 54, 6,6,6-trifluoro-1-(4-(4-phenoxybutoxy)phenyl)hexane-1,5-dione]: the melting point lay in the range of 78.8 to 80.4 °C. Also, in series [1] (setting [4]), the remaining activity at 0.727 µM was at most 60%. Also, the remaining activity at 0.182 µM in series [1] (setting [3]) was at most 35%.
`O=C(CCCOc1ccc(OCCCc2ccccc2)cc1)C(F)(F)F` [Example 32, 1,1,1-trifluoro-5-[4-(3-phenylpropoxy)phenoxy]pentan-2-one] yielded a melting point of 32 to 35 °C.
Consider `O=C(CCCCCCCCCc1ccccc1)C(F)(F)F` [Example 8, 1,1,1-trifluoro-11-phenyl-undecan-2-one], for which, in series [1] (setting [2]), the remaining activity at 0.727 µM was at most 60%.
`O=C(CCCC(=O)C(F)(F)F)c1ccc(-c2ccc3ccccc3c2)cc1` [Example 62, 6,6,6-trifluoro-1-(4-(2-naphthyl)phenyl)hexane-1,5-dione]: the remaining activity at 0.727 µM in series [1] (setting [4]) was at most 20%. Moreover, the remaining activity at 0.091 µM in series [1] (setting [3]) is at most 60%.
Molecule `CCCCCCCCCCCCCCOc1ccc(C(=O)CCCC(=O)C(F)(F)F)cc1` [Example 65, 6,6,6-trifluoro-1-(4-(tetradecyloxy)phenyl)hexane-1,5-dione] showed a melting point of 63.3 to 65 °C. Moreover, the remaining activity at 0.091 µM in series [1] (setting [3]) is at most 20%.
With `O=C(CCCC(=O)C(F)(F)F)c1ccc(OCCCc2ccccc2)cc1` [Example 55, 6,6,6-trifluoro-1-(4-(3-phenylpropoxy)phenyl)hexane-1,5-dione], the melting point lay in the range of 52.6 to 54.5 °C. Also, in series [1] (setting [4]), the remaining activity at 0.727 µM is at most 60%. In series [1] (setting [3]), the remaining activity at 0.182 µM is at most 35%.
Turning to `COc1ccc(C(=O)C(CCCCOc2ccccc2)CCC(=O)C(F)(F)F)cc1` (stereo not shown) [Example 38, 6,6,6-trifluoro-1-(4-methoxyphenyl)-2-(4-phenoxybutyl)hexane-1,5-dione], the remaining activity at 0.182 µM in series [1] (setting [3]) is at most 20%.
`O=C(CCCC(=O)C(F)(F)F)c1ccc2c(c1)CCCC2` [Example 60, 6,6,6-trifluoro-1-(5,6,7,8-tetrahydronaphthalen-2-yl)hexane-1,5-dione]: in series [1] (setting [4]), the remaining activity at 0.727 µM was at most 20%.
With `CCCCCCCCCCCCCCCCOc1ccc(C(=O)CCCC(=O)C(F)(F)F)cc1` [Example 63, 6,6,6-trifluoro-1-(4-(hexadecyloxy)phenyl)hexane-1,5-dione], the melting point is 67.7 to 68.9 °C.

Source of the values: patent US6930207B2, “Trifluoroacetylalkyl-substituted phenyl, phenol and benzoyl compounds and related methods of treatment” (Solvay Pharmaceutical GmbH, priority 2001, dated 2005).
